Results published in patent publication US8063065B2, “Azaindazole compounds as CCR1 receptor antagonists” (Boehringer Ingelheim International GmbH, priority 2008, dated 2011).
pIC50: −log10 of the molar value.

Target: T1, CCR1 (Homo sapiens, UniProt P32246)
T1 sequence (P32246 1-355): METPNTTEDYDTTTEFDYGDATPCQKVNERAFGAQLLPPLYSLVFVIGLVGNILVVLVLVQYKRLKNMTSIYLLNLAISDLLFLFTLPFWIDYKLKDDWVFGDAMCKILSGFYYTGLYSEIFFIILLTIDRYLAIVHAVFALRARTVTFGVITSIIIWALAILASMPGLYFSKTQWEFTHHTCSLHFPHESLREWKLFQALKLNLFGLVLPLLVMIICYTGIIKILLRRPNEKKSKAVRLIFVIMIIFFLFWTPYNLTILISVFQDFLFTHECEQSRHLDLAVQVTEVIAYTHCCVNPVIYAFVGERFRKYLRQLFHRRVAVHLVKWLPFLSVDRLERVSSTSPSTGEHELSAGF
Experiment: Method B: calcium flux in CCR1 transfected cells (Calcium 4 dye, […] FDSS6000), block of the CCR1/MIP-1α interaction
Type: cell-based
Conditions: Method B: Calcium 4 dye, MIP-1alpha at EC80
How it was run: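 Calcium flux on an FDSS6000 was triggered by MIP-1α at its EC80 in stably CCR1/G-alpha-16-expressing non-adherent cells. Before this, Calcium 4-loaded cells were preincubated with compound in HBSS, 20 mM HEPES pH 7.4, 1% DMSO: 30 min at 37 C plus 30 min at room temperature. Ten 4-fold doses began at 3,000 nM, with ±MIP-1α DMSO wells as controls.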

Row | SMILES | pIC50
1 | CCC[C@@H](NC(=O)c1cncc2c1cnn2-c1ccc(F)cc1)c1ccc(OC)c(Br)c1 [1-(4-Fluorophenyl)-1H-pyrazolo[3,4-c]pyridine-4-carboxylic acid [(R)-1-(3-bromo-4-methoxy-phenyl)-butyl]-amide] | 9.52
2 | CC[C@@H](NC(=O)c1cncc2c1cnn2-c1ccc(F)cc1)c1ccn(S(=O)(=O)c2ccc(C)cc2)c1 [1-(4-Fluorophenyl)-1H-pyrazolo[3,4-c]pyridine-4-carboxylic acid {(R)-1-[1-(toluene-4-sulfonyl)-1H-pyrrol-3-yl]-propyl}-amide] | 7.64
3 | CC(C)(NC(=O)c1cncc2c1cnn2-c1ccc(F)cc1)c1ccnc(Br)c1 [1-(4-Fluorophenyl)-1H-pyrazolo[3,4-c]pyridine-4-carboxylic acid [1-(2-bromo-pyridin-4-yl)-1-methyl-ethyl]-amide] | 7.85
4 | CCC(NC(=O)c1cncc2c1cnn2-c1ccc(F)cc1)c1nc(C(=O)NC)c(C)o1 (stereo not shown) [1-(4-Fluorophenyl)-1H-pyrazolo[3,4-c]pyridine-4-carboxylic acid [1-(5-methyl-4-methylcarbamoyl-oxazol-2-yl)-propyl]-amide] | 8.05
5 | COC(=O)CCS(=O)(=O)c1cc([C@H](C)NC(=O)c2cncc3c2cnn3-c2ccc(F)cc2)ccn1 [3-[4-((S)-1-{[1-(4-Fluorophenyl)-1H-pyrazolo[3,4-c]pyridine-4-carbonyl]-amino}-ethyl)-pyridine-2-sulfonyl]-propionic acid methyl ester] | 7.43
6 | CN(CC(N)=O)c1cc(CNC(=O)c2cncc3c2cnn3-c2ccc(F)cc2)cc(S(C)(=O)=O)n1 [1-(4-Fluorophenyl)-1H-pyrazolo[3,4-c]pyridine-4-carboxylic acid [2-(carbamoylmethyl-methyl-amino)-6-methanesulfonyl-pyridin-4-ylmethyl]-amide] | 8.52
7 | CS(=O)(=O)c1cc([C@H](CC2COC(=O)O2)NC(=O)c2cncc3c2cnn3-c2ccc(F)cc2)ccn1 (stereo partly drawn) [1-(4-Fluorophenyl)-1H-pyrazolo[3,4-c]pyridine-4-carboxylic acid [(S)-1-(2-methanesulfonyl-pyridin-4-yl)-2-(2-oxo-1,3-dioxolan-4-yl)-ethyl]-amide] | 8.22
8 | CS(=O)(=O)c1cc(CNC(=O)c2cncc3c2cnn3-c2ccc(F)cc2)cc(NCC(N)=O)n1 [1-(4-Fluorophenyl)-1H-pyrazolo[3,4-c]pyridine-4-carboxylic acid [2-(carbamoylmethyl-amino)-6-methanesulfonyl-pyridin-4-ylmethyl]-amide] | 7.96
9 | O=C(NCc1cc(Br)cs1)c1cncc2c1cnn2-c1ccc(F)cc1 [1-(4-Fluorophenyl)-1H-pyrazolo[3,4-c]pyridine-4-carboxylic acid (4-bromo-thiophen-2-ylmethyl)-amide] | 8.15
10 | C[C@H](NC(=O)c1cncc2c1cnn2-c1ccc(F)cc1)c1cc(N(C)CC(N)=O)nc(S(C)(=O)=O)c1 [1-(4-Fluorophenyl)-1H-pyrazolo[3,4-c]pyridine-4-carboxylic acid {(S)-1-[2-(carbamoylmethyl-methyl-amino)-6-methanesulfonyl-pyridin-4-yl]-ethyl}-amide] | 9.00
11 | CC[C@H](NC(=O)c1cncc2c1cnn2-c1ccc(F)cc1)c1nc(C(=O)OC)co1 [2-((S)-1-{[1-(4-Fluorophenyl)-1H-pyrazolo[3,4-c]pyridine-4-carbonyl]-amino}-propyl)-oxazole-4-carboxylic acid methyl ester] | 7.42
12 | CS(=O)(=O)n1ccc2c(CNC(=O)c3cncc4c3cnn4-c3ccc(F)cc3)ccnc21 [1-(4-Fluorophenyl)-1H-pyrazolo[3,4-c]pyridine-4-carboxylic acid (1-methanesulfonyl-1H-pyrrolo[2,3-b]pyridin-4-ylmethyl)-amide] | 8.52
13 | C[C@H](NC(=O)c1cncc2c1cnn2-c1ccc(F)cc1)c1ccnc(Br)c1 [1-(4-Fluorophenyl)-1H-pyrazolo[3,4-c]pyridine-4-carboxylic acid [(S)-1-(2-bromopyridin-4-yl)-ethyl]-amide] | 9.40
14 | CC[C@H](NC(=O)c1cncc2c1cnn2-c1ccc(F)cc1)c1ccnc(N(C)CCOC)c1 [1-(4-Fluorophenyl)-1H-pyrazolo[3,4-c]pyridine-4-carboxylic acid ((S)-1-{2-[(2-methoxy-ethyl)-methyl-amino]-pyridin-4-yl}-propyl)-amide] | 9.00
15 | CCC(NC(=O)c1cncc2c1cnn2-c1ccc(F)cc1)c1nc(C(=O)NCC#N)co1 (stereo not shown) [1-(4-Fluorophenyl)-1H-pyrazolo[3,4-c]pyridine-4-carboxylic acid {1-[4-(cyanomethyl-carbamoyl)-oxazol-2-yl]-propyl}-amide] | 7.60

The remaining lines, values ahead:

Row | pIC50 | SMILES
16 | 8.40 | C[C@H](NC(=O)c1cncc2c1cnn2-c1ccc(F)cc1)c1csc(S(C)(=O)=O)n1 [1-(4-Fluorophenyl)-1H-pyrazolo[3,4-c]pyridine-4-carboxylic acid [(S)-1-(2-methanesulfonyl-thiazol-4-yl)-ethyl]-amide]
17 | 8.15 | CCC(NC(=O)c1cncc2c1cnn2-c1ccc(F)cc1)c1cnc(N(C)S(C)(=O)=O)nc1 (stereo not shown) [1-(4-Fluorophenyl)-1H-pyrazolo[3,4-c]pyridine-4-carboxylic acid {1-[2-(methanesulfonyl-methyl-amino)-pyrimidin-5-yl]-propyl}-amide]
18 | 9.05 | CC[C@H](NC(=O)c1cncc2c1cnn2-c1ccc(F)cc1)c1c[nH]c(S(C)(=O)=O)c1 [1-(4-Fluorophenyl)-1H-pyrazolo[3,4-c]pyridine-4-carboxylic acid [(S)-1-(5-methanesulfonyl-1H-pyrrol-3-yl)-propyl]-amide]
19 | 8.05 | CCC(NC(=O)c1cncc2c1cnn2-c1ccc(F)cc1)c1ccc(S(C)(=O)=O)[n+]([O-])c1 (stereo not shown) [1-(4-Fluorophenyl)-1H-pyrazolo[3,4-c]pyridine-4-carboxylic acid [1-(6-methanesulfonyl-1-oxy-pyridin-3-yl)-propyl]-amide]
20 | 9.70 | C[C@H](NC(=O)c1cncc2c1cnn2-c1ccc(F)cc1)c1cc(N(C)C)nc(S(C)(=O)=O)c1 [1-(4-Fluorophenyl)-1H-pyrazolo[3,4-c]pyridine-4-carboxylic acid [(S)-1-(2-dimethylamino-6-methanesulfonyl-pyridin-4-yl)-ethyl]-amide]
21 | 9.40 | CC[C@H](NC(=O)c1cncc2c1cnn2-c1ccc(F)cc1)c1ccnc(S(N)(=O)=O)c1 [1-(4-Fluorophenyl)-1H-pyrazolo[3,4-c]pyridine-4-carboxylic acid [(S)-1-(2-sulfamoyl-pyridin-4-yl)-propyl]-amide]
22 | 9.00 | CC[C@H](NC(=O)c1cncc2c1cnn2-c1ccc(F)cc1)c1ccnc(C(N)=O)c1 [1-(4-Fluorophenyl)-1H-pyrazolo[3,4-c]pyridine-4-carboxylic acid [(S)-1-(2-carbamoyl-pyridin-4-yl)-propyl]-amide]
23 | 9.40 | COc1cc([C@H](C)NC(=O)c2cncc3c2cnn3-c2ccc(F)cc2)cc(S(C)(=O)=O)n1 [1-(4-Fluorophenyl)-1H-pyrazolo[3,4-c]pyridine-4-carboxylic acid [(S)-1-(2-methanesulfonyl-6-methoxy-pyridin-4-yl)-ethyl]-amide]
24 | 9.70 | CC[C@H](NC(=O)c1cncc2c1cnn2-c1ccc(F)cc1)c1ccnc(Cl)c1 [1-(4-Fluorophenyl)-1H-pyrazolo[3,4-c]pyridine-4-carboxylic acid [(S)-1-(2-chloropyridin-4-yl)-propyl]-amide]
25 | 8.40 | COC(=O)C[C@H](NC(=O)c1cncc2c1cnn2-c1ccc(F)cc1)c1ccnc(S(C)(=O)=O)c1 [(S)-3-{[1-(4-Fluorophenyl)-1H-pyrazolo[3,4-c]pyridine-4-carbonyl]-amino}-3-(2-methanesulfonyl-pyridin-4-yl)-propionic acid methyl ester]
26 | 8.30 | CS(=O)(=O)c1csc(CNC(=O)c2cncc3c2cnn3-c2ccc(F)cc2)c1 [1-(4-Fluorophenyl)-1H-pyrazolo[3,4-c]pyridine-4-carboxylic acid (4-methanesulfonyl-thiophen-2-ylmethyl)-amide]
27 | 8.40 | CCS(=O)(=O)c1cncc([C@H](C)NC(=O)c2cncc3c2cnn3-c2ccc(F)cc2)c1 [1-(4-Fluorophenyl)-1H-pyrazolo[3,4-c]pyridine-4-carboxylic acid [(S)-1-(5-ethanesulfonyl-pyridin-3-yl)-ethyl]-amide]
28 | 9.52 | CC[C@H](NC(=O)c1cncc2c1cnn2-c1ccc(F)cc1)c1csc(S(C)(=O)=O)c1 [1-(4-Fluorophenyl)-1H-pyrazolo[3,4-c]pyridine-4-carboxylic acid [(S)-1-(5-methanesulfonyl-thiophen-3-yl)-propyl]-amide]
29 | 8.20 | CC[C@H](NC(=O)c1cncc2c1cnn2-c1ccc(F)cc1)c1cncc(S(=O)(=O)CCC(=O)OC)c1 [3-[5-((S)-1-{[1-(4-Fluorophenyl)-1H-pyrazolo[3,4-c]pyridine-4-carbonyl]-amino}-propyl)-pyridine-3-sulfonyl]-propionic acid methyl ester]
30 | 7.80 | CCC(NC(=O)c1cncc2c1cnn2-c1ccc(F)cc1)c1nc(C(=O)NC)co1 (stereo not shown) [1-(4-Fluorophenyl)-1H-pyrazolo[3,4-c]pyridine-4-carboxylic acid [1-(4-methylcarbamoyl-oxazol-2-yl)-propyl]-amide]
31 | 7.55 | CC[C@H](NC(=O)c1cncc2c1cnn2-c1ccc(F)cc1)c1cc(Br)no1 [1-(4-Fluorophenyl)-1H-pyrazolo[3,4-c]pyridine-4-carboxylic acid [(S)-1-(3-bromo-isoxazol-5-yl)-propyl]-amide]
